Key:
[1] = cited from earlier work; for hyperammonemia as adverse effect: literature
[2] = human, in vivo
Description: The pharmacovigilance data that were collected, reviewed and analyzed provided the following information in respect of the incidence of hyperammonemia. A total of 4 cases fulfilled the criteria of potential hyperammonemia cases. These cases were reviewed in detail for evaluation of possible safety signals. Two US cases were reported as either high ammonia levels or increased ammonia. Two Japanese cases were reported as hyperammonemia.
Of these, two (2) cases (both ZON1000262 and ZON1000346) had strong confounding factors and seem to be unrelated to zonisamide, but the possibility of zonisamide involvement cannot be completely excluded. The two cases of hyperammonemia originated from Japan and both involved adult patients. Both cases were serious and described as life-threatening. […]
Estimates of exposure, based upon retail and mail order prescriptions, indicate that the number of unique patients taking zonisamide capsules in the U.S. is about 37,276 (total prescriptions per year/average number of prescriptions per patient per year less a calculated percentage decrease based on estimated annual dropouts) in the time between approval in 2000 and December 2002. […] Similarly, the incidences of NMS estimated herein are unlikely to be higher than calculated. Based on the exposure data and number of hyperammonemia cases, the incidence of hyperammonemia is calculated to be about […].

sodium channels = conditions: in vitro; cited from earlier work
T-type Ca2+ currents = conditions: in vitro; cited from earlier work
[3] = system: GABA/benzodiazepine receptor ionophore complex; conditions: in vitro; cited from earlier work
[4] = system: cultured mouse spinal cord neurons; conditions: 10-30 μg/mL; cited from earlier work
rat hippocampal slices = conditions: 10-30 μg/mL; cited from earlier work
[5] = system: dopaminergic and serotonergic neurotransmission; conditions: in vivo microdialysis; cited from earlier work
[6] = cited from earlier work
carbonic anhydrase = conditions: fraction of the inhibition by acetazolamide; cited from earlier work

Row | Structure (SMILES) | hyperammonemia as adverse effect [1] | cases of hyperammonemia associated with the drug ([1]; since 1979, O'Neil et al. 2002) | cases fulfilling the criteria of potential hyperammonemia cases [2] [cases] | incidence of hyperammonemia [2] | effect on sodium channels (sodium channels) | effect on voltage-dependent, transient inward currents (T-type Ca2+ currents) (T-type Ca2+ currents) | binding to the GABA/benzodiazepine receptor ionophore complex [3] | changes in chloride flux [3] | postsynaptic GABA or glutamate responses [4] | synaptically-driven electrical activity [4] | neuronal or glial uptake of [3H]-GABA (rat hippocampal slices) | dopaminergic and serotonergic neurotransmission [5] | hepatic enzyme induction ([6]; in vivo) | time required to achieve steady-state levels ([6]; upon reaching a stable dose or following dosage adjustment) | carbonic anhydrase inhibition compared to acetazolamide (carbonic anhydrase)
1 | NC(=O)N1c2ccccc2C=Cc2ccccc21 [carbamazepine] | known to cause hyperammonemia | – | – | – | – | – | – | – | – | – | – | – | – | – | –
2 | CCCC(CCC)C(=O)O [valproate] | known to cause hyperammonemia | more than 30 cases | – | – | – | – | – | – | – | – | – | – | – | – | –
3 | NS(=O)(=O)Cc1noc2ccccc12 [zonisamide, 1,2-benzisoxazole-3-methanesulfonamide] | – | – | 4 | about 1:1,222,453 | blocks sodium channels | reduces | binds to the GABA/benzodiazepine receptor ionophore complex in an allosteric fashion | does not produce changes in chloride flux | without affecting | suppresses | without affecting | facilitates | not known to be a hepatic enzyme inducer | up to two weeks | 1/50

— patent US20050154036A1, “Methods of using zonisamide as an adjunctive therapy for partial seizures” (Eisai Co., Ltd., priority 2004, published 2005)
